In patent US11242327B2, “Analgesic compounds” (RECURIUM IP HOLDINGS, LLC, priority 2017, dated 2022):

Tests used:
Assay type in all cases: in vivo
male Sprague-Dawley rats [1] = test: Formalin Paw Test, rat, oral; conditions: 30 mg/kg; for Early Phase, seconds of paw licking: early/acute phase (0-10 minutes); for Late Phase, seconds of paw licking: late/tonic phase (10-35 minutes)
Method: One test compound or the vehicle was administered to each rat or mouse in each test group (8 rats or mice per group). Non-fasted male Sprague-Dawley rats weighing 200-225 g or non-fasted male ICR mice weighing 23±3 g were used. […] Responses were measured every 5 minutes after the formalin injection for 35 minutes. The results in Table 2 are for oral administration in rat and the results in Table 3 are for intraperitoneal administration in mouse. In Tables 2 and 3, 'A' designates <70 seconds of paw licking, 'B' designates >70 and <165 seconds of paw licking, and 'C' designates >165 seconds of paw licking.

male Sprague-Dawley rats [2] = test: UVB Inflammatory Pain Test (thermal hyperalgesia); conditions: rat, oral, 30 mg/kg
Method: UVB irradiation to the surface of the hind paw was used to induce cutaneous inflammatory pain in non-fasted male Sprague-Dawley rats weighing 175-300 g. On Day −3, animals were restrained and the plantar surface of the left hind paw was exposed to 350 mJoules/cm^2 of UVB irradiation using a narrow band UVB light source (Daavlin®, Bryan, Ohio). Following UVB irradiation, animals were returned to their home cage. Thermal hyperalgesia was assessed prior to dosing and approximately 1, 2, and 4 hours after dosing on Day 0 using a radiant heat plantar test apparatus (IITC Life Sciences©; Woodland Hills, Calif.). Animals were placed in individual acrylic chambers on a glass platform warmed to 30±2° C. and allowed to acclimate to their surroundings for a minimum of 15 minutes before testing. The stimulus was presented to the plantar surface and the timer was activated. The stimulus intensity was set such that pre-injury paw withdrawal latencies were approximately 12-18 seconds. Paw withdrawal latency values were recorded at the first observed nocifensive behavior (paw withdrawal, flinching, biting and/or licking). Three paw withdrawal latencies were measured for each hind paw per time point. The mean of the 3 values was taken as the paw withdrawal latency for that time point. A maximum cutoff latency of 30 seconds was used to prevent injury to the animal. The mean and standard error of the mean (SEM) were determined for each paw for each treatment group at each time point. Test compounds were administered orally at concentrations of 3, 10, 30 or 100 mg/kg; celecoxib was administered orally at a concentration of 30 mg/kg; and acetaminophen was administered orally at a concentration of 300 mg/kg. The control group received the vehicle (sterile water). In Table 4, ‘A’ designates >8 seconds of paw withdrawal latency, ‘B’ designates >6 and <8 seconds of paw withdrawal latency, and ‘C’ designates <6 seconds of paw withdrawal latency.
The results provided in Table 4 are for oral administration in rats. […] Furthermore, while acetaminophen was dosed at 300 mg/kg, compounds of Formulae (Ie), (Ih) and (Ik), or a pharmaceutically acceptable salt of any of the foregoing, were dosed at 3 mg/kg, 10 mg/kg and 100 mg/kg.

male Sprague-Dawley rats [3] = test: Osteoarthritis Pain Test (MIA, mechanical hyperalgesia); conditions: rat, oral once daily, 30 mg/kg
Method: Osteoarthritis pain was induced in non-fasted male Sprague-Dawley rats weighing 150-250 g by injecting 2 mg of monosodium iodoacetate (MIA) into the left knee joint. Mechanical hyperalgesia was measured using a digital Randall-Selitto device (dRS; IITC Life Sciences©; Woodland Hills, Calif.). Animals were allowed to acclimate to the testing room for a minimum of 15 minutes before testing. Animals were placed in a restraint sling that suspended the animal, leaving the hind limbs available for testing. The stimulus was applied to the knee joint by a blunt tip and pressure was applied gradually over approximately 10 seconds. Joint compression threshold values were recorded at the first observed nocifensive behavior (vocalization, struggle, or withdrawal). One reading per joint was taken at each time point, and a maximum stimulus cutoff of 500 grams was used to prevent injury to the animal. Mechanical hyperalgesia was assessed prior to MIA injection, and again 14 days later. After 14 days, test or control articles were administered once daily for 7 days with mechanical hyperalgesia assessed prior to dosing, 1, 2, and 4 hours post-dosing on days 0, 3, and 6. Test compounds were administered orally at concentrations of 3, 10, 30 or 100 mg/kg and celecoxib was administered orally at a concentration of 30 mg/kg. The control group received the vehicle (sterile water). After day 0, groups receiving the 100 mg/kg dose were reduced to a dose of 3 mg/kg. In Table 5, ‘A’ designates ≥375 grams of joint compression, ‘B’ designates ≥325 and <375 grams of joint compression, and ‘C’ designates <325 grams of joint compression.
The results provided in Table 5 are for oral administration in rats.

## Cl.NC12CC(c3ccc(C(F)(F)F)cc3)(C1)C2 [Compound 3, 3-(4-(trifluoromethyl)phenyl)bicyclo[1.1.1]pentan-1-amine hydrochloride]
Male Sprague-Dawley rats [1]
  Early Phase, seconds of paw licking: A (<70 seconds of paw licking)
  Late Phase, seconds of paw licking: A (<70 seconds of paw licking)

## Cc1ccc(-c2cc(C(F)(F)F)nn2-c2ccc(S(N)(=O)=O)cc2)cc1 [Celecoxib, reference compound]
Male Sprague-Dawley rats [2]; 1 h after dosing
  paw withdrawal latency, 1 h: A (>8 seconds of paw withdrawal latency)
Male Sprague-Dawley rats [2]; 2 h after dosing
  paw withdrawal latency, 2 h: A (>8 seconds of paw withdrawal latency)
Male Sprague-Dawley rats [2]; 4 h after dosing
  paw withdrawal latency, 4 h: A (>8 seconds of paw withdrawal latency)
Male Sprague-Dawley rats [3]; Day 0, 1 h post-dosing
  joint compression threshold, Day 0, 1 h: B (≥325 and <375 grams of joint compression)
Male Sprague-Dawley rats [3]; Day 0, 2 h post-dosing
  joint compression threshold, Day 0, 2 h: A (≥375 grams of joint compression)
Male Sprague-Dawley rats [3]; Day 0, 4 h post-dosing
  joint compression threshold, Day 0, 4 h: B (≥325 and <375 grams of joint compression)
Male Sprague-Dawley rats [3]; Day 3, 1 h post-dosing
  joint compression threshold, Day 3, 1 h: C (<325 grams of joint compression)
Male Sprague-Dawley rats [3]; Day 3, 2 h post-dosing
  joint compression threshold, Day 3, 2 h: A (≥375 grams of joint compression)
Male Sprague-Dawley rats [3]; Day 3, 4 h post-dosing
  joint compression threshold, Day 3, 4 h: A (≥375 grams of joint compression)
Male Sprague-Dawley rats [3]; Day 6, 1 h post-dosing
  joint compression threshold, Day 6, 1 h: B (≥325 and <375 grams of joint compression)
Male Sprague-Dawley rats [3]; Day 6, 2 h post-dosing
  joint compression threshold, Day 6, 2 h: A (≥375 grams of joint compression)
Male Sprague-Dawley rats [3]; Day 6, 4 h post-dosing
  joint compression threshold, Day 6, 4 h: A (≥375 grams of joint compression)

## Cl.NC12CC(c3cccc(C(F)(F)F)c3)(C1)C2 [Compound 5]
Male Sprague-Dawley rats [1]
  Early Phase, seconds of paw licking: A (<70 seconds of paw licking)
  Late Phase, seconds of paw licking: B (>70 and <165 seconds of paw licking)

## Cl.OCCNC12CC(C(F)(F)F)(C1)C2 [Compound 9, 2-((3-(Trifluoromethyl)bicyclo[1.1.1]pentan-1-yl)amino)ethan-1-ol hydrochloride]
Male Sprague-Dawley rats [1]
  Early Phase, seconds of paw licking: A (<70 seconds of paw licking)
  Late Phase, seconds of paw licking: C (>165 seconds of paw licking)

## COc1cccc(C23CC(N)(C2)C3)c1.Cl [Compound 18, 3-(3-Methoxyphenyl)bicyclo[1.1.1]pentan-1-amine hydrochloride]
Male Sprague-Dawley rats [1]
  Early Phase, seconds of paw licking: A (<70 seconds of paw licking)
  Late Phase, seconds of paw licking: B (>70 and <165 seconds of paw licking)

## CC(F)(F)C12CC(N)(C1)C2.Cl [Compound 19, 3-(1,1-Difluoroethyl)bicyclo[1.1.1]pentan-1-amine hydrochloride]
Male Sprague-Dawley rats [1]
  Early Phase, seconds of paw licking: A (<70 seconds of paw licking)
  Late Phase, seconds of paw licking: B (>70 and <165 seconds of paw licking)

## CC(C)C(F)(F)C12CC(N)(C1)C2.Cl [Compound 20, 3-(1,1-Difluoro-2-methylpropyl)bicyclo[1.1.1]pentan-1-amine hydrochloride]
Male Sprague-Dawley rats [1]
  Early Phase, seconds of paw licking: A (<70 seconds of paw licking)
  Late Phase, seconds of paw licking: C (>165 seconds of paw licking)

## CC(C)=C(F)C12CC(N)(C1)C2.Cl [Compound 21, 3-(1-fluoro-2-methylprop-1-en-1-yl)bicyclo[1.1.1]pentan-1-amine hydrochloride]
Male Sprague-Dawley rats [1]
  Early Phase, seconds of paw licking: A (<70 seconds of paw licking)
  Late Phase, seconds of paw licking: C (>165 seconds of paw licking)

## Cl.NC12CC(c3nc4cc(Cl)ccc4o3)(C1)C2 [Compound 16, 3-(5-chlorobenzo[d]oxazol-2-yl)bicyclo[1.1.1]pentan-1-amine hydrochloride]
Male Sprague-Dawley rats [1]
  Early Phase, seconds of paw licking: A (<70 seconds of paw licking)
  Late Phase, seconds of paw licking: C (>165 seconds of paw licking)

## Cl.NC12CC(c3nc4cc(F)ccc4[nH]3)(C1)C2 [Compound 17, 3-(5-fluoro-1H-benzo[d]imidazol-2-yl)bicyclo[1.1.1]pentan-1-amine hydrochloride]
Male Sprague-Dawley rats [1]
  Early Phase, seconds of paw licking: A (<70 seconds of paw licking)
  Late Phase, seconds of paw licking: C (>165 seconds of paw licking)

## COc1ccc(C23CC(N)(C2)C3)cc1.Cl [Compound 4, 3-(4-Methoxyphenyl)bicyclo[1.1.1]pentan-1-amine hydrochloride]
Male Sprague-Dawley rats [1]
  Early Phase, seconds of paw licking: A (<70 seconds of paw licking)
  Late Phase, seconds of paw licking: A (<70 seconds of paw licking)

## Cl.NC12CC(c3ccc(Cl)cc3)(C1)C2 [Compound 10, 3-(4-Chlorophenyl)bicyclo[1.1.1]pentan-1-amine hydrochloride]
Male Sprague-Dawley rats [1]
  Early Phase, seconds of paw licking: A (<70 seconds of paw licking)
  Late Phase, seconds of paw licking: A (<70 seconds of paw licking)

## CCNC12CC(C(F)(F)F)(C1)C2.Cl [Compound 8, N-Ethyl-3-(trifluoromethyl)bicyclo[1.1.1]pentan-1-amine hydrochloride]
Male Sprague-Dawley rats [1]
  Early Phase, seconds of paw licking: A (<70 seconds of paw licking)
  Late Phase, seconds of paw licking: C (>165 seconds of paw licking)

## Cl.NC12CC(c3nc4cc(C(F)(F)F)ccc4o3)(C1)C2 [Compound 15, 3-(5-(Trifluoromethyl)benzo[d]oxazol-2-yl)bicyclo[1.1.1]pentan-1-amine hydrochloride]
Male Sprague-Dawley rats [1]
  Early Phase, seconds of paw licking: A (<70 seconds of paw licking)
  Late Phase, seconds of paw licking: C (>165 seconds of paw licking)

## Cl.NC12CC(c3ccnc(C(F)(F)F)n3)(C1)C2 [Compound 11, 3-(2-(Trifluoromethyl)pyrimidin-4-yl)bicyclo[1.1.1]pentan-1-amine hydrochloride]
Male Sprague-Dawley rats [1]
  Early Phase, seconds of paw licking: A (<70 seconds of paw licking)
  Late Phase, seconds of paw licking: C (>165 seconds of paw licking)

## Cl.NC12CC(c3ccccc3)(C1)C2 [Compound 22, 3-Phenylbicyclo[1.1.1]pentan-1-amine hydrochloride]
Male Sprague-Dawley rats [1]
  Early Phase, seconds of paw licking: A (<70 seconds of paw licking)
  Late Phase, seconds of paw licking: B (>70 and <165 seconds of paw licking)

## Cl.NC12CC(c3nc4cc(C(F)(F)F)ccc4s3)(C1)C2 [Compound 14, 3-(5-(trifluoromethyl)benzo[d]thiazol-2-yl)bicyclo[1.1.1]pentan-1-amine hydrochloride]
Male Sprague-Dawley rats [1]
  Early Phase, seconds of paw licking: A (<70 seconds of paw licking)
  Late Phase, seconds of paw licking: C (>165 seconds of paw licking)

## Cl.NC12CC(c3nccc(C(F)(F)F)n3)(C1)C2 [Compound 12, 3-(4-(Trifluoromethyl)pyrimidin-2-yl)bicyclo[1.1.1]pentan-1-amine hydrochloride]
Male Sprague-Dawley rats [1]
  Early Phase, seconds of paw licking: A (<70 seconds of paw licking)
  Late Phase, seconds of paw licking: C (>165 seconds of paw licking)
